A short description of data set [1]: DNP hyperpolarisation of acetic anhydride with Finlandic acid trityl radical, with or without gadolinium complex (solid state polarisation build up). The class given is physicochemical. On the procedure: A stock solution of radical was prepared by dissolving Finlandic acid (2.7 mg, 2.6 μmol) in unlabeled acetic anhydride (22.2 mg) yielding a solution with a concentration of 105 μmol/g.

A short description of data set [2]: Dissolution and hydrolysis of hyperpolarised acetic anhydride, NMR time series of 1D spectra to follow signal decay. The class given is physicochemical. The method, then:
A stock solution of radical was prepared by dissolving Finlandic acid (2.7 mg, 2.6 μmol) in unlabeled acetic anhydride (22.2 mg) yielding a solution with a concentration of 105 μmol/g. A part (2.1 mg) of this stock solution was mixed with 1,1′-^13C2 acetic anhydride (15 μl, 17.2 mg, 0.165 mmol) to make a 12.8 mM solution. […] The sample was dissolved in 5 ml water with added NaOH (12 M, 39 μl) and allowed to hydrolyze for 15 s and then neutralized by mixing with phosphate buffer (300 μl, 1M, pH 7.3) with addition of HCl (14 μl, 12M). The sample was transferred to an NMR spectrometer and the acquisition was started 30 s after the dissolution recording a time series of 1D spectra to follow signal decay.

Where [3] appears, read: 13C DNP, acetic anhydride/1,1'-13C2 acetic anhydride, Finlandic acid radical 12.5 mM, gadolinium complex added as labelled (none for acetic anhydride, Example 1), FIG. 1.

Consider `CC(O)CN1CCN(CC(=O)[O-])CCN(CC(=O)[O-])CCN(CC(=O)[O-])CC1.[Gd+3]` (stereo not shown) [Gadolinium complex III, [10-(2-hydroxypropyl)-1,4,7,10-tetraazacyclododecane-1,4,7-triacetato(3-)]gadolinium, reference compound], for which the “exponential time constant of hyperpolarisation” value (from here on “exponential time constant”) in data set [1] (setting [3]) came to 750 s.

On to `CC(=O)OC(C)=O` [acetic anhydride], for which, in data set [2] (5 ml water with NaOH, 15 s hydrolysis, neutralized, acquisition 30 s after dissolution), the “hydrolysis of acetic anhydride at the start of the acquisition” value was “complete”. The “exponential time constant” value in data set [1] (setting [3]) came to 670 s; in data set [1] (Example 5: 1,1'-13C2 acetic anhydride, Finlandic acid 12.8 mM, no gadolinium complex), 525 s.

With `CC(=O)O` [hydrolysis product, acetic acid], the “T1 of the hydrolysis product” value in data set [2] (after dissolution in water/NaOH, hydrolysis 15 s, neutralization to pH 6.8, acquisition started 30 s after dissolution) is on record as 45 s.

With “[[α1,α4,α7-tris[(phenylmethoxy)methyl]-1,4,7,10-tetraazacyclododecane-1,4,7,10-tetraacetato(4-)]gadolinate(1-)]hydrogen [Gadolinium complex I]”, the “exponential time constant” value in data set [1] (setting [3]) was determined as 690 s.

As to `CCCCCCCCCCCCCCCCCCN(CCCCCCCCCCCCCCCCCC)C(=O)CN1CCN(CC(=O)[O-])CCN(CC(=O)[O-])CCN(CC(=O)[O-])CC1.[Gd+3]` [Gadolinium complex II, [10-[2-(dioctadecylamino)-2-oxoethyl]-1,4,7,10-tetraazacyclododecane-1,4,7-triacetato(3-)]gadolinium, reference compound], the “exponential time constant” value in data set [1] (setting [3]) was found to be 690 s.

The record behind these values is patent US9693828B2, “Composition comprising acetic anhydride and a gadolinium complex, and method for the use in hyperpolarisation in MRI analysis” (BRACCO IMAGING S.P.A., priority 2011, dated 2017).
